Reference: patent publication US5990094A, “Inhibitors of sorotonin N-acetyltransferase” (The Rockefeller University, priority 1998, dated 1999)
Values joined by “and” are separate entries in the source; they are usually repeats but may differ in a detail not shown here. Identical values can stand only once. “Also recorded” adds a separate entry of the source. Like-named read-outs stand apart in the source and are kept apart here.

Legend:
AANAT [1] = molecular target: T1, AANAT (Ovis aries, UniProt Q29495); assay: Tryptamine analogs as AANAT substrates, steady-state kinetic parameters
Procedure: Expression of eukaryotic proteins in bacteria is unpredictable.
The enzymatic assays available for AANAT were direct, radioactive assays. […] Thus indirect methods to measure CoASH formation were tested.
The first objective of these studies was to determine the tolerance of alkyl chain length for substrate processing efficiency. […] Indole-propylamine (7.1) and indole-butylamines(7.2) are not commercially available and were prepared as shown (FIG. 7) (6l).
Another important selectivity issue was addressing the effects of a-methyl and Nw-methyl-substitutions of tryptamine analogs (FIG. 8) on AANAT catalysis. […] These compounds were obtained from commercial sources and tested as AANAT substrates. […] Using these compounds.

AANAT [2] = molecular target: T1, AANAT; assay: a-Trifluoromethyltryptamine tested as AANAT substrate and competitive inhibitor; assay type: biochemical, sheep; parameters: The entire open reading frame of the DNA encoding sheep AANAT in the plasmid vector pET15b; GST (glutathione S-transferase, thrombin-cleavable) (N); made in house; host or cells: Escherichia coli
Procedure: Expression of eukaryotic proteins in bacteria is unpredictable. Indeed, efforts to express the rat and human AANAT protein in E. coli have so far been unsuccessful. In contrast, the sheep enzyme which is 80% identical at the amino acid level to rat and human can be expressed in E. coli as a soluble protein (51). GST-AANAT can be obtained in approximately 90% purity with a yield of 5-10 mg/L of E. coli culture after purification with glutathione-agarose. Optimization of conditions for production of this fusion protein has led to the induction being carried out at 22-24° C. for 5-6 h after 0.2 mM IPTG to prevent inclusion body formation. The fusion protein can be concentrated to>6 mg/mL using an Amicon filter and appears to be stable for at least 6 months when stored at -80° C. in the presence of a thiol-reducing agent. […] Specific activity is also highly reproducible from batch to batch. Cleavage of the fusion protein with thrombin followed by repeat glutathione-affinity chromatography has afforded GST-free AANAT.
Quantitatively, the specific activity is essentially identical to the conventional radioactive assay. Importantly, there is no evidence of significant uncoupling of CoASH production and amide formation with any substrates (or non-substrates) tested.
Commercially available bromotrifluoromethyl ketone was converted to the oxime by reaction with hydroxylamine. The oxime was used to generate the vinyl nitroso derivative which was used in situ to react in a 4+2 cycloaddition and produce the 3-substituted indole. Reduction of this material with LiAlH4 led to generation of racemic a-trifluoromethyltryptamine. a-Trifluoromethyltryptamine was calculated to have a primary amine pKa of approximately 6. […] It is not clear from these studies if the lack of tight binding of a-trifluoromethyltryptamine represents steric or electronic repulsion of the fluorines offset by the tighter binding of the neutral amine function, or if a positively charged amine is the preferred state for binding to AANAT (65).

GST-AANAT [3] = molecular target: T2, GST-AANAT (Ovis aries, UniProt Q29495); assay: Two-substrate steady state kinetics with GST-AANAT; assay type: biochemical, sheep
T2 construct: The entire open reading frame of the DNA encoding sheep AANAT in the plasmid vector pET15b; made in house; host or cells: Escherichia coli BL21(DE3)pLysS
Procedure: (§1) DTNB Product Detection Assay
(§2) This assay is based on the detection of CoASH generated during acetyl transfer by reaction with the thiol reagent DTNB (19). […] Reactions were initiated with enzyme (3 μl, 5-30 nM final concentration) that had been prediluted (10-100 fold) in 50 mM sodium phosphate, 500 mM NaCl, 2 mM EDTA, and 0.05 mg/ml bovine serum albumin in the absence of reducing agent immediately before use and maintained on ice during the assay. The reactions were quenched for 0-3 min with 0.6 ml of a buffer containing guanidinium-HCl (3.2 M), sodium phosphate (0.1 M), pH 6.8. […] Background absorbances (with all components added including enzyme) were measured and subtracted from the total absorbance.
Two-Substrate Kinetic Measurements
Two substrate kinetic analysis was performed with substrate concentrations given in FIG. 3, and the data were fitted to the sequential (ternary complex) mechanism equation (Equation 2) using the computer program Kinet-Asyst II™ (IntelliKinetics, State College, Pa.) based on the algorithms of Cleland (20),
.upsilon.=Vm ·A·B/(Ka ·Kb
·Kma ·B+Kmb ·A+A·B)(Eq. 2)
(§3) using a nonlinear least squares approach.

GST-AANAT [4] = molecular target: T2, GST-AANAT; assay: Kinetic measurements with inhibitors of GST-AANAT; assay type: biochemical, sheep
Procedure: as §1
(§4) This assay is based on the detection of CoASH generated during acetyl transfer by reaction with the thiol reagent DTNB (19). […] Reactions were initiated with enzyme (3 μl, 5-30 nM final concentration) that had been prediluted (10-100 fold) in 50 mM sodium phosphate, 500 mM NaCl, 2 mM EDTA, and 0.05 mg/ml bovine serum albumin in the absence of reducing agent immediately before use and maintained on ice during the assay. The reactions were quenched for 0-3 min with 0.6 ml of a buffer containing guanidinium-HCl (3.2 M), sodium phosphate (0.1 M), pH 6.8. These mixtures were treated with 0.1 ml of DTNB (2 mM, 0.1 M sodium phosphate, pH 6.8, 10 mM EDTA), vortexed, and allowed to stand for 5 min before absorbance readings were performed at 412 nm (thiophenolate-quantified assuming ε=13.7×10^3 M^-1 cm^-1) (19). Background absorbances (with all components added including enzyme) were measured and subtracted from the total absorbance. […] The rate of conversion of acetyl-CoA to CoASH in the absence of amine was negligible over the course of the assay.
Kinetic Measurements with Inhibitors
.upsilon.=Vm ·S/Km (1+I/Kis) (Eq. 3) using a nonlinear least squares approach. The fixed substrate was assumed to be saturating.
.upsilon.=Vm ·S/[Km (1+I/Kis)+S(1+I/Kii)](Eq. […]
as §3
V=Vm ·S/[Km +S(1+I/Kii)] (Eq. 5)
The abbreviations are Kii =Ki intercept and Kis =Ki slope based on double-reciprocal plot analysis according to the nomenclature of Cleland (21). The data for individual experiments with each inhibitor versus a varied substrate were fit to all three inhibitor models. Choice of kinetic fit was based on a combination of visual inspection and comparison of S.E. values and residuals for all three inhibition types

AANAT [5] = molecular target: T1, AANAT; assay: Viscosity studies with sucrose as microviscogen; assay type: biochemical, sheep; parameters: The entire open reading frame of the DNA encoding sheep AANAT in the plasmid vector pET15b; GST (glutathione S-transferase, thrombin-cleavable) (N); made in house; host or cells: Escherichia coli; conditions: for slope of kcat-control/kcat-viscogen vs. relative viscosity: kcat effect (FIG. 10); for rate-determining step: viscosity studies
Description: An important part of enzyme mechanistic analysis is to determine which step(s) is (are) rate-determining for the enzyme reaction. After the binding of the substrates to the enzyme, there are several potential rate-determining steps, the chemical step or one of the product release steps.
Viscosity effects can be useful for distinguishing product release steps from non-diffusional steps (66). The principle of using viscosity effects to study enzyme reaction kinetics is based on the fundamental inverse relationship between microviscosity and diffusional rates. Thus a linear increase in microviscosity caused by a microviscogen such as sucrose causes a linear decrease in the diffusion of small molecules. Since little diffusion is involved in the chemical step, this step is taken as viscosity-insensitive. However, viscogenic agents (which are used at rather high concentrations) can cause non-diffusion related effects by interacting with the enzyme or substrate. Controls for these non-diffusional effects must be carried out. […] Since poor substrates in general would be expected to have reduced kcat values because the rate of their chemical steps are reduced, any viscosity effects observed would be expected to be related to non-diffusional or "artifactual" effects.

GST-AANAT fusion = GST-AANAT fusion (Ovis aries, UniProt Q29495); assay: DTNB product detection assay, apparent substrate kinetics with GST-AANAT
Procedure: as §1, §2

GST-AANAT [6] = molecular target: T2, GST-AANAT; assay: Tryptophol tested as alternative substrate of GST-AANAT; assay type: biochemical, sheep; conditions: 1 mM tryptophol, 1 mM acetyl-CoA, up to 3 min
Procedure: as §1, §4
The structural analog to tryptamine in which the primary amine function is replaced by a hydroxyl function (tryptophol) (see FIG. 4) could theoretically be an alternative AANAT substrate.

[7] = varied substrate acetyl-CoA, tryptamine 0.2 mM (subsaturating)
[8] = varied substrate acetyl-CoA, tryptamine 0.2 mM, read-out: Ksi
[9] = varied substrate tryptamine, acetyl-CoA 1 mM
[10] = varied substrate tryptamine, acetyl-CoA 1 mM, read-out: Kis

T1 sequence (Q29495 whole entry): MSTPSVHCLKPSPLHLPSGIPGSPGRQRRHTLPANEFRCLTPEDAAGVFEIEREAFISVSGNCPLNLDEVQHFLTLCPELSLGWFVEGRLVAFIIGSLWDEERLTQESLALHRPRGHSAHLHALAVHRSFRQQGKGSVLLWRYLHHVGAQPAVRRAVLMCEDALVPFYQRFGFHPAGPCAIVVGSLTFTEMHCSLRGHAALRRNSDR
T2 sequence (Q29495 other isoform, or with tags, fused parts or gaps): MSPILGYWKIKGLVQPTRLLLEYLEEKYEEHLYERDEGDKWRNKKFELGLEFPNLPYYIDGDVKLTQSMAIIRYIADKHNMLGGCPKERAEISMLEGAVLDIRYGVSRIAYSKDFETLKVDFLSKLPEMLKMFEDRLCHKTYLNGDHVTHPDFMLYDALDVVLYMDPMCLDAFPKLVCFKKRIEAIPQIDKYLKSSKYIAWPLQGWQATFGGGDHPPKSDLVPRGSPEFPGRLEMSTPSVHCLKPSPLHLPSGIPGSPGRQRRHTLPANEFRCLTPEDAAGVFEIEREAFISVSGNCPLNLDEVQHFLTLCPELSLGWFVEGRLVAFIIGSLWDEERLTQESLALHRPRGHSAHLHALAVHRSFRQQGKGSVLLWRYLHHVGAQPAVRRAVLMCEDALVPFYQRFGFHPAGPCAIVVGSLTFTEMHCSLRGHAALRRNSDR
Chain of GST-AANAT fusion (Q29495 whole entry, the tested form may be a part): as the sequence (Q29495 whole entry) above

## CC(N)Cc1c[nH]c2ccccc12 (racemic) [a-methyltryptamine]
AANAT [1]
  AANAT substrate: substrates
  kcat and Km compared to tryptamine: significantly reduced kcat and Km compared to tryptamine

## NC(Cc1c[nH]c2ccccc12)C(F)(F)F (racemic) [a-trifluoromethyltryptamine]
AANAT [2]
  AANAT substrate: not detectably an AANAT substrate
AANAT [2]; competitive inhibitor
  Ki: 3000 ± 1000 µM
AANAT [2]; listed as Ya-Trifluoromethyltryptamine
  AANAT substrate: not to be a substrate

## CC(=O)SCCNC(=O)CCNC(=O)[C@H](O)C(C)(C)COP(=O)(O)OP(=O)(O)OC[C@H]1O[C@@H](n2cnc3c(N)ncnc32)[C@H](O)[C@@H]1OP(=O)(O)O [Acetyl-CoA, acetyl-CoA]
GST-AANAT [3]; ordered sequential mechanism, read-out: Kin (dissociation constant of the first binding substrate)
  Kd: 509 ± 156 µM
GST-AANAT [3]; read-out: dissociation constant (Kd)
  Kd: 510 µM

## CCNC(=O)CCNC(=O)[C@H](O)C(C)(C)COP(=O)(O)OP(=O)(O)OC[C@H]1O[C@@H](n2cnc3c(N)ncnc32)[C@H](O)[C@@H]1OP(=O)(O)O [Desulfo-CoA, desulfo-CoA]
GST-AANAT [4]; quoted in discussion, read-out: K1
  Ki: 1000 µM
GST-AANAT [4]; saturating tryptamine
  Kis relative to dissociation constant of acetyl-CoA: 2 fold
GST-AANAT [4]; varied substrate acetyl-CoA, tryptamine 1 mM
  Inhibitor pattern: linear competitive inhibitor
GST-AANAT [4]; varied substrate acetyl-CoA, tryptamine 1 mM, listed as desulfo-CoA
  Inhibitor pattern: linear competitive
GST-AANAT [4]; varied substrate acetyl-CoA, tryptamine 1 mM, read-out: Kis
  Ki: 1020 µM and 1000 µM
GST-AANAT [4]; varied substrate tryptamine, acetyl-CoA 0.2 mM
  Inhibitor pattern: noncompetitive inhibitor
GST-AANAT [4]; varied substrate tryptamine, acetyl-CoA 0.2 mM, listed as desulfo-CoA
  Inhibitor pattern: linear noncompetitive
GST-AANAT [4]; varied substrate tryptamine, acetyl-CoA 0.2 mM, read-out: Kis
  Ki: 1340 ± 450 µM
GST-AANAT [4]; varied substrate tryptamine, acetyl-CoA 0.2 mM, read-out: Ksi
  Ki: 1490 ± 230 µM

## CC(=O)NCCc1c[nH]c2ccccc12 [N-Acetyltryptamine, N-acetyltryptamine]
GST-AANAT [4]; [7]
  Inhibitor pattern: uncompetitive
GST-AANAT [4]; varied substrate acetyl-CoA, tryptamine 0.2 mM (subsaturating), listed as N-acetyltryptamine
  Inhibitor pattern: uncompetitive inhibitor
GST-AANAT [4]; [8]
  Ki: 331 ± 23 µM
GST-AANAT [4]; [9]
  Inhibitor pattern: noncompetitive
GST-AANAT [4]; varied substrate tryptamine, acetyl-CoA 1 mM, listed as N-acetyltryptamine
  Inhibitor pattern: noncompetitive inhibitor; also recorded: linear noncompetitive
GST-AANAT [4]; [10]
  Ki: 205 ± 29 µM
GST-AANAT [4]; varied substrate tryptamine, acetyl-CoA 1 mM, read-out: Ksi
  Ki: 916 ± 160 µM

## CNCCc1c[nH]c2ccccc12 [Nw-methyltryptamine]
AANAT [1]
  AANAT substrate: substrates
  kcat and Km compared to tryptamine: significantly reduced kcat and Km compared to tryptamine; also recorded: substantially reduced kcat compared to tryptamine
AANAT [5]; sucrose
  slope of kcat-control/kcat-viscogen vs. relative viscosity: +0.16±0.03
AANAT [5]; sucrose, kcat/Km effect
  slope of kcat/Km control/viscogen vs. relative viscosity: -0.14±0.03
AANAT [5]
  rate-determining step: the chemical step is rate-determining

## NCCc1c[nH]c2ccc(O)cc12 [Serotonin, 5-hydroxytryptamine]
GST-AANAT fusion; 1 mM (near saturating) concentration of the fixed substrate
  kcat(app): 34 ± 2 s⁻¹
GST-AANAT fusion; serotonin vs tryptamine
  kcat(app) and Km(app) compared with tryptamine: nearly indistinguishable from those obtained with tryptamine
AANAT [1]; Table 1, tryptamine analogs
  kcat: 34 ± 1 s⁻¹

## NCCc1c[nH]c2ccccc12 [Tryptamine, tryptamine]
AANAT [5]; sucrose
  slope of kcat-control/kcat-viscogen vs. relative viscosity: +0.75±0.08
AANAT [5]
  rate-determining step: product release (or a conformational change associated with product release) is largely rate-determining

## OCCc1c[nH]c2ccccc12 [Tryptophol, tryptophol]
GST-AANAT [4]; [7]
  Inhibitor pattern: uncompetitive
GST-AANAT [4]; varied substrate acetyl-CoA, tryptamine 0.2 mM (subsaturating), listed as trypochol
  Inhibitor pattern: linear uncompetitive
GST-AANAT [4]; varied substrate acetyl-CoA, tryptamine 0.2 mM (subsaturating), listed as tryptophol
  Inhibitor pattern: uncompetitive inhibitor
GST-AANAT [4]; [8]
  Ki: 1360 ± 120 µM
GST-AANAT [4]; [9]
  Inhibitor pattern: competitive
GST-AANAT [4]; varied substrate tryptamine, acetyl-CoA 1 mM, listed as tryptophol
  Inhibitor pattern: linear competitive inhibitor
GST-AANAT [4]; [10]
  Ki: 680 ± 78 µM
GST-AANAT [4]; versus acetyl-CoA
  Kis relative to Kii in a noncompetitive fit: more than 10 times
GST-AANAT [6]
  acetyl transfer (alternative substrate): prevents enzyme-catalyzed acetyl transfer; also recorded: not an alternative substrate
  acetylation efficiency relative to tryptamine, fold less: at least 400 fold
GST-AANAT [6]; listed as tryptophol
  acetyl transfer (alternative substrate): no detectable transfer took place; also recorded: not a substrate
